One experiment relates to T1, Human α4^K59E/C204Y + α1.
T1 construct: gene GLRA1
As to conditions: agonist; -40 mV; pH 7.4; 22 °C. From the text: whole-cell patch clamp, Hill fit on Human α4^K59E/C204Y + α1

The target of another experiment is T2, Mouse α4 GlyR (Mus musculus, UniProt Q61603).
T2 construct: gene Glra4; full-length wild-type cDNA from whole brain in pRK5, homomeric pentamer, HEK293 cells
T2 sequence (Q61603 28-456): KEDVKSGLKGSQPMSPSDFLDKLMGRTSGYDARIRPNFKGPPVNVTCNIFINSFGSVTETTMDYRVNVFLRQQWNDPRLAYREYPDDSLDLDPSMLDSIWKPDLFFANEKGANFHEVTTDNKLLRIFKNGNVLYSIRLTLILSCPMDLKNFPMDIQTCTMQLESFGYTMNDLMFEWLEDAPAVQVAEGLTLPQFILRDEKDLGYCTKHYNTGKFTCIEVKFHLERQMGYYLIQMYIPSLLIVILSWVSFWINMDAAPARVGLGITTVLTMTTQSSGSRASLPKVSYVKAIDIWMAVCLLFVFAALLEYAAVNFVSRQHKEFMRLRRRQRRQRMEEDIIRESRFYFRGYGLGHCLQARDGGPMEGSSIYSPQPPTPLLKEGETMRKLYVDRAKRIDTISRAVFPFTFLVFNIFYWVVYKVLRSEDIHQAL
Nature of the experiment: whole-cell patch clamp, Hill fit. Type of experiment: cell-based. From the text:
whole-cell patch clamp, Hill fit on Mouse α4 GlyR

Another experiment deals with T3, Gorilla α4 GlyR (Gorilla gorilla, UniProt G3RDJ8).
T3 construct: gene GLRA4; full-length synthetic predicted cDNA in pRK5, homomeric pentamer, HEK293 cells
T3 sequence (G3RDJ8 29-457): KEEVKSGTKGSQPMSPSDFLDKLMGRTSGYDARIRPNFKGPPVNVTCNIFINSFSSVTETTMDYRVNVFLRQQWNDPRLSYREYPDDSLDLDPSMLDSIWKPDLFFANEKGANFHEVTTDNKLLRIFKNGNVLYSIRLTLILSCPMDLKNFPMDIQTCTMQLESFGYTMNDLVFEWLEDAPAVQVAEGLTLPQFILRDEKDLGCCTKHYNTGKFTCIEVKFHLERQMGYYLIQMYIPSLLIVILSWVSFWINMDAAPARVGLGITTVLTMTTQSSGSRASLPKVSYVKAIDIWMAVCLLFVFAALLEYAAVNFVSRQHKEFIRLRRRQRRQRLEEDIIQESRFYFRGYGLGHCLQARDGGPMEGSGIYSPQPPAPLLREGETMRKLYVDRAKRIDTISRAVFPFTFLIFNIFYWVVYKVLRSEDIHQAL
Nature of the experiment: whole-cell patch clamp, Hill fit. Type of experiment: cell-based. From the text: whole-cell patch clamp, Hill fit on Gorilla α4 GlyR

Turning to `NCC(=O)O` [glycine], the values for the EC50 in the experiment with Human α4^K59E/C204Y + α1, on Mouse α4 GlyR and on Gorilla α4 GlyR were 350 ± 29 µM, 61 ± 10 µM and 86 ± 16 µM, respectively.

These data come from PMC5797729, “Structure/Function Studies of the α4 Subunit Reveal Evolutionary Loss of a GlyR Subtype Involved in Startle and Escape Responses” (Frontiers in Molecular Neuroscience, 2018).
